Source: ChEMBL document CHEMBL4330117, “Synthesis, biological evaluation and molecular docking of benzimidazole grafted benzsulfamide-containing pyrazole ring derivatives as novel tubulin polymerization inhibitors” (Bioorg Med Chem, 2019)
Each block holds one molecule with its values, some of them ahead of it. Calls of active or inactive are those of the source. The calls are words filed in the database; no cut-off is given here.

Experiments:
[1] = Cytotoxicity against HEK293T cells after 24 hrs by MTT assay; type: cell-based, HEK-293T; settings: human
A549 [2] = assay: Cell cycle arrest in human A549 cells assessed as accumulation at S phase at 0.1 uM after 24 hrs by propidium iodide/RNase A staining-based flow cytometric analysis (reference value: 11.36%); type: functional
A549 [3] = assay: Cell cycle arrest in human A549 cells assessed as accumulation at G2/M phase at 0.1 uM after 24 hrs by propidium iodide/RNase A staining-based flow cytometric analysis (reference value: 17.62%); type: functional
[4] = Toxicity in mouse xenografted with rat H22 cells assessed as weight loss at 3 mg/kg, ip measured after 28 days; type: organism-based; settings: in vivo, 672 h
A549 [5] = assay: Cell cycle arrest in human A549 cells assessed as downregulation of Cdc2 expression level after 24 hrs by Western blot analysis; type: functional, cell-based
A549 [6] = assay: Cell cycle arrest in human A549 cells assessed as upregulation of cyclin B1 expression level after 24 hrs by Western blot analysis; type: functional, cell-based
A549 [7] = assay: Induction of apoptosis in human A549 cells assessed as necrotic cells at 0.5 uM after 24 hrs by Annexin V-FITC/propidium iodide staining-based flow cytometric analysis (reference value: 10.8%); type: functional
Tubulin (Homo sapiens) [8] = target: T1, Tubulin (Homo sapiens) (UniProt P68371+Q9H4B7+P0DPH7+P68366+Q13509+Q71U36+P04350+Q3ZCM7+P07437+P68363+Q9BQE3+Q6PEY2+Q13885+Q9BVA1+Q9BUF5); assay: Induction of microtubule disruption in human A549 cells assessed as cell rounding at 0.2 uM after 24 hrs by rhodamine and DAPI staining based immunofluorescence microscopic analysis
A549 [9] = assay: Cell cycle arrest in human A549 cells assessed as accumulation at G1 phase at 0.5 uM after 24 hrs by propidium iodide/RNase A staining-based flow cytometric analysis (reference value: 71.02%); type: functional
A549 [10] = assay: Cell cycle arrest in human A549 cells assessed as accumulation at G2/M phase after 24 hrs by propidium iodide/RNase A staining-based flow cytometric analysis; type: functional
A549 [11] = assay: Cell cycle arrest in human A549 cells assessed as accumulation at G2/M phase at 0.3 uM after 24 hrs by propidium iodide/RNase A staining-based flow cytometric analysis (reference value: 17.62%); type: functional
A549 [12] = assay: Induction of apoptosis in human A549 cells assessed as late apoptotic cells at 0.1 uM after 24 hrs by Annexin V-FITC/propidium iodide staining-based flow cytometric analysis (reference value: 3.55%); type: functional
A549 [13] = assay: Induction of apoptosis in human A549 cells assessed as viable cells at 0.1 uM after 24 hrs by Annexin V-FITC/propidium iodide staining-based flow cytometric analysis (reference value: 82.8%); type: functional; settings: A549, 24 h, read-out: Activity
A549 [14] = assay: Induction of apoptosis in human A549 cells assessed as upregulation of Bax level up to 0.5 uM after 24 hrs by Western blot analysis; type: functional, cell-based
A549 [15] = assay: Cell cycle arrest in human A549 cells assessed as accumulation at S phase at 0.3 uM after 24 hrs by propidium iodide/RNase A staining-based flow cytometric analysis (reference value: 11.36%); type: functional
A549 [16] = assay: Induction of apoptosis in human A549 cells assessed as viable cells at 0.5 uM after 24 hrs by Annexin V-FITC/propidium iodide staining-based flow cytometric analysis (reference value: 82.8%); type: functional; settings: A549, 24 h, read-out: Activity
A549 [17] = assay: Induction of apoptosis in human A549 cells assessed as early apoptotic cells at 0.1 uM after 24 hrs by Annexin V-FITC/propidium iodide staining-based flow cytometric analysis (reference value: 2.81%); type: functional
HeLa = assay: Antiproliferative activity against human HeLa cells after 24 hrs by MTT assay; type: functional, cell-based
A549 [18] = assay: Cell cycle arrest in human A549 cells assessed as accumulation at S phase at 0.5 uM after 24 hrs by propidium iodide/RNase A staining-based flow cytometric analysis (reference value: 11.36%); type: functional
A549 [19] = assay: Induction of apoptosis in human A549 cells assessed as early apoptotic cells at 0.5 uM after 24 hrs by Annexin V-FITC/propidium iodide staining-based flow cytometric analysis (reference value: 2.81%); type: functional
A549 [20] = assay: Induction of apoptosis in human A549 cells assessed as late apoptotic cells at 0.5 uM after 24 hrs by Annexin V-FITC/propidium iodide staining-based flow cytometric analysis (reference value: 3.55%); type: functional
A549 [21] = assay: Induction of apoptosis in human A549 cells assessed as viable cells at 0.3 uM after 24 hrs by Annexin V-FITC/propidium iodide staining-based flow cytometric analysis (reference value: 82.8%); type: functional; settings: A549, 24 h, read-out: Activity
HepG2 = assay: Antiproliferative activity against human HepG2 cells after 24 hrs by MTT assay; type: functional, cell-based; settings: HepG2, 24 h
Tubulin (Bos taurus) [22] = target: T2, Tubulin (Bos taurus) (UniProt Q6B856+Q862L2+Q862F3); assay: Inhibition of vinblastine binding to bovine brain tubulin at 5 uM
A549 [23] = assay: Induction of apoptosis in human A549 cells assessed as early apoptotic cells at 0.3 uM after 24 hrs by Annexin V-FITC/propidium iodide staining-based flow cytometric analysis (reference value: 2.81%); type: functional
Rattus norvegicus = assay: Antitumor activity against rat hepatoma H22 cells implanted in mouse assessed as reduction in tumor volume at 3 mg/kg, ip measured after 8 to 28 days; type: functional, organism-based
A549 [24] = assay: Cell cycle arrest in human A549 cells assessed as upregulation of p21 expression level after 24 hrs by Western blot analysis; type: functional, cell-based
A549 [25] = assay: Induction of apoptosis in human A549 cells assessed as late apoptotic cells at 0.3 uM after 24 hrs by Annexin V-FITC/propidium iodide staining-based flow cytometric analysis (reference value: 3.55%); type: functional
MCF7 = assay: Antiproliferative activity against human MCF7 cells after 24 hrs by MTT assay; type: functional, cell-based; settings: MCF7, 24 h
A549 [26] = assay: Induction of apoptosis in human A549 cells assessed as downregulation of Bcl2 level up to 0.5 uM after 24 hrs by Western blot analysis; type: functional, cell-based
A549 [27] = assay: Induction of apoptosis in human A549 cells assessed as necrotic cells at 0.1 uM after 24 hrs by Annexin V-FITC/propidium iodide staining-based flow cytometric analysis (reference value: 10.8%); type: functional
Tubulin (Bos taurus) [28] = target: T2, Tubulin (Bos taurus); assay: Inhibition of [3H]colchicine binding to bovine brain tubulin at 5 uM
A549 [29] = assay: Cell cycle arrest in human A549 cells assessed as accumulation at G1 phase at 0.1 uM after 24 hrs by propidium iodide/RNase A staining-based flow cytometric analysis (reference value: 71.02%); type: functional
A549 [30] = assay: Antiproliferative activity against human A549 cells after 24 hrs by MTT assay; type: functional, cell-based; settings: A549, 24 h
A549 [31] = assay: Cell cycle arrest in human A549 cells assessed as downregulation of cdc25c expression level after 24 hrs by Western blot analysis; type: functional, cell-based
[32] = Cytotoxicity against mouse primary hepatocytes after 24 hrs by MTT assay; type: cell-based, Hepatocyte
A549 [33] = assay: Cell cycle arrest in human A549 cells assessed as accumulation at G2/M phase at 0.5 uM after 24 hrs by propidium iodide/RNase A staining-based flow cytometric analysis (reference value: 17.62%); type: functional
Tubulin (Homo sapiens) [34] = target: T1, Tubulin (Homo sapiens); assay: Induction of microtubule disruption in human A549 cells assessed as cell contraction at 0.2 uM after 24 hrs by rhodamine and DAPI staining based immunofluorescence microscopic analysis
A549 [35] = assay: Cell cycle arrest in human A549 cells assessed as accumulation at G1 phase at 0.3 uM after 24 hrs by propidium iodide/RNase A staining-based flow cytometric analysis (reference value: 71.02%); type: functional
A549 [36] = assay: Induction of microtubule disruption in human A549 cells assessed as spindle microtubule disorganization accompanied by misaligned chromosomes from metaphase plate at 0.5 uM after 24 hrs by rhodamine and DAPI staining based immunofluorescence microscopic analysis; type: functional, cell-based
A549 [37] = assay: Induction of apoptosis in human A549 cells assessed as necrotic cells at 0.3 uM after 24 hrs by Annexin V-FITC/propidium iodide staining-based flow cytometric analysis (reference value: 10.8%); type: functional
A549 [38] = assay: Induction of apoptosis in human A549 cells assessed as upregulation of cleaved PARP level up to 0.5 uM after 24 hrs by Western blot analysis; type: functional, cell-based
A549 [39] = assay: Induction of apoptosis in human A549 cells assessed as upregulation of cleaved caspase-3 level up to 0.5 uM after 24 hrs by Western blot analysis; type: functional, cell-based

Activity (Tubulin (Homo sapiens) [8]): Active
IC50 (HeLa): 210 nM
IC50 (HepG2): 330 nM
inhibition (Tubulin (Bos taurus) [22]): 0.06%
IC50 (MCF7): 170 nM
inhibition (Tubulin (Bos taurus) [28]): 91%
IC50 (A549 [30]): 150 nM
Activity (Tubulin (Homo sapiens) [34]): Active
Structure (SMILES): Cc1ccc(C)c(S(=O)(=O)n2c(-c3cn(-c4ccccc4)nc3-c3ccc(C(F)(F)F)cc3)nc3ccccc32)c1
CC50 at 24 h [1]: 223000 nM
Activity (A549 [2]): 14.42%
Activity (A549 [3]): 22.63%
Activity [4]: Non-Toxic
Activity (A549 [5]): Dose-dependent effect
Activity (A549 [6]): Dose-dependent effect
Activity (A549 [7]): 18.2%
Activity (A549 [9]): 47.63%
Activity (A549 [10]): Dose-dependent effect
Activity (A549 [11]): 28.13%
Activity (A549 [12]): 4.9%
viability at 0.1 µM (A549 [13]): 78.6%
Activity (A549 [14]): Active
Activity (A549 [15]): 18.56%
viability at 0.5 µM (A549 [16]): 62.9%
Activity (A549 [17]): 3.08%
Activity (A549 [18]): 12.11%
Activity (A549 [19]): 10.1%
Activity (A549 [20]): 8.74%
viability at 0.3 µM (A549 [21]): 71%
Activity (A549 [23]): 6.69%
Activity (Rattus norvegicus): Active
Activity (A549 [24]): Dose-dependent effect
Activity (A549 [25]): 5.95%
Activity (A549 [26]): Active
Activity (A549 [27]): 13.4%
Activity (A549 [29]): 62.95%
Activity (A549 [31]): Dose-dependent effect
CC50 at 24 h [32]: 132000 nM
Activity (A549 [33]): 40.26%
Activity (A549 [35]): 53.31%
Activity (A549 [36]): Active
Activity (A549 [37]): 16.3%
Activity (A549 [38]): Active
Activity (A549 [39]): Active

IC50 (HeLa): 560 nM
IC50 (HepG2): 590 nM
inhibition (Tubulin (Bos taurus) [22]): 0.52%
IC50 (MCF7): 630 nM
inhibition (Tubulin (Bos taurus) [28]): 61%
IC50 (A549 [30]): 480 nM
Structure (SMILES): O=S(=O)(c1ccccc1)n1c(-c2cn(-c3ccccc3)nc2-c2ccc(C(F)(F)F)cc2)nc2ccccc21
CC50 at 24 h [1]: 128000 nM
CC50 at 24 h [32]: 186000 nM

Structure (SMILES): COc1ccc(/C=C\c2cc(OC)c(OC)c(OC)c2)cc1O [COMBRETASTATIN A4]
CC50 at 24 h [1]: 162000 nM
Activity [4]: Toxic
IC50 (HeLa): 240 nM
IC50 (HepG2): 330 nM
Activity (Rattus norvegicus): Active
IC50 (MCF7): 180 nM
IC50 (A549 [30]): 160 nM
CC50 at 24 h [32]: 178000 nM
